According to patent US20260015350A1, “AZAQUINAZOLINE PAN-KRAS INHIBITORS” (Mirati Therapeutics, Inc., priority 2022, published 2026):

Legend:
KRas^G12D = target: T1, KRas^G12D (Homo sapiens, UniProt P01116, G12D); test: KRas binding assay (TR-FRET tracer displacement), KRas G12D
T1 construct: Biotinylated KRas (corresponding to amino acids 1-169, produced at Accelegan Inc.); biotin (biotinylated); purchased Accelegan Inc

KRas^G12R = target: T2, KRas^G12R (Homo sapiens, UniProt P01116, G12R); test: KRas binding assay (TR-FRET tracer displacement), KRas G12R
T2 construct: Biotinylated KRas (corresponding to amino acids 1-169, produced at Accelegan Inc.); biotin (biotinylated); purchased Accelegan Inc
T2 sequence (P01116 1-169 isoform P01116-2 G12R): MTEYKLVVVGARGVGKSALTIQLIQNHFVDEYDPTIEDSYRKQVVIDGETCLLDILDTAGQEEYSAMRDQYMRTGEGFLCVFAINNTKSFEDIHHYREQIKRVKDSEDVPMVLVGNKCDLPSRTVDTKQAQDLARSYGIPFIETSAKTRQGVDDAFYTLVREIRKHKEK

KRas^G12V = target: T3, KRas^G12V (Homo sapiens, UniProt P01116, G12V); test: KRas binding assay (TR-FRET tracer displacement), KRas G12V
T3 construct: Biotinylated KRas (corresponding to amino acids 1-169, produced at Accelegan Inc.); biotin (biotinylated); purchased Accelegan Inc
T3 sequence (P01116 1-169 isoform P01116-2 G12V): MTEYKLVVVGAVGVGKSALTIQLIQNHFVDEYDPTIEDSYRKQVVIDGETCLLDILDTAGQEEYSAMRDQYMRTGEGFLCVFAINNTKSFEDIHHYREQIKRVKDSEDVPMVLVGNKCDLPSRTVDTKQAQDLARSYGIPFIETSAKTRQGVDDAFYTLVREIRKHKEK

[1] = test system: KRas-mediated phosphorylation of ERK in AsPC-1 cells; test: Inhibition of KRas-mediated phosphorylation of ERK (Cisbio HTRF pERK), AsPC-1 cells; format: cell-based; details: Homo sapiens, ASPC1, AsPC-1 cells; HTRF pERK
Experimental: (§1) Inhibition of KRas Phosphorylation of ERK (HTRF) by Exemplary Compounds of Formula (I) Cisbio HTRF Advanced PERK Assay Catalog #64[…] […] Add 10 mL of media to stop trypsinizing. Pipette the cells into a conical bottom 50 mL centrifuge tube and centrifuge 5 min×1000 rpm. […] Re-suspend the cell pellet in media, take a cell count, and then adjust the cell density using fresh media. […] Seed 6,000 cells into cell culture plate with 50 μL media. […] Use Tecan to complete the compound addition. Compounds start from 10 uM top, 3-fold dilution, and 10 doses. The final DMSO concentration is 0.8%. Dispensed 0.2 uM Trametinib as Min control. […] Incubate cell plate for 3 hrs in the incubator. […] Dilute 1 volume of 4× lysis buffer with 3 volumes of deionized water. […] Keep lysis buffer on the ice. […] At the end of the compound treatment, flick-off the media. […] Add 35 μL of lysis buffer per well using a Multidrop Combi. Then place on a plate agitator shaking at 300 rpm at 4° C. for 40 mins. […] Make up the HTRF antibody buffer. For each assay plate, mix 50 μL of d2-conjugate antibody with 950 μL of detection buffer. Similarly, mix 50 μL of Cryptate antibody with 950 μL of detection buffer. Then mix the two diluted antibodies together. […] Dispense 3.4 μL the antibody buffer to wells of an empty assay plate. Seal the plate and centrifuge plate 30 sec×1000 rpm. […] At the end of the 4° C. lysis, centrifuge the lysate plates 3 mins×1500 rpm. […] Use the Bravo to transfer 13.6 μL of lysate from cell culture plate to assay plate. Then incubate assay plate for 2 hrs at room temperature. 8. At the end of incubation, read plate on the Envision after centrifuging plate 30 sec×1000 rpm.

[2] = test system: KRas-mediated phosphorylation of ERK in H727 cells; test: Inhibition of KRas-mediated phosphorylation of ERK (Cisbio HTRF pERK), H727 cells; format: cell-based; details: Homo sapiens, NCI-H727, H727 cells; HTRF pERK
Experimental: as §1

T1 sequence (P01116 1-169 isoform P01116-2 G12D): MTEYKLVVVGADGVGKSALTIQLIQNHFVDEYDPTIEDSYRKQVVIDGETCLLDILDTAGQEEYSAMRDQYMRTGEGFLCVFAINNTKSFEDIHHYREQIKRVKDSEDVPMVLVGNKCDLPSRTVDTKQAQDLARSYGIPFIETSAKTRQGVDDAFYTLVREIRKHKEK

| IC50 (KRas^G12D) [nM] | IC50 (KRas^G12R) [nM] | IC50 (KRas^G12V) [nM] | IC50 [1] [nM] | IC50 [2] [nM] | Compound |
| --- | --- | --- | --- | --- | --- |
| > 100000 | 27500 | 42800 |  |  | CCc1cccc2cccc(-c3ncc4c(C5CCCOCC5)nc(OCC56CCCN5CCC6)nc4c3F)c12 (racemic) [Example 723, rac-(R)-7-(8-ethylnaphthalen-1-yl)-8-fluoro-4-(oxepan-4-yl)-2-((tetrahydro-1H-pyrrolizin-7a(5H)-yl)methoxy)pyrido[4,3-d]pyrimidine] |
| > 100000 | > 100000 | 70900 |  |  | Fc1c(-c2cccc3cccc(F)c23)ncc2c(C3=CCCCC3)nc(OCC34CCCN3CCC4)nc12 [Example 524, 4-(cyclohex-1-en-1-yl)-8-fluoro-7-(8-fluoronaphthalen-1-yl)-2-((hexahydro-1H-pyrrolizin-7a-yl)methoxy)pyrido[4,3-d]pyrimidine] |
| 4970 | 656 | 431 |  |  | CCc1c(F)ccc2cc(O)cc(-c3ncc4c(CCc5ccnn5C)nc(OC[C@@]56CCCN5C[C@H](F)C6)nc4c3F)c12 [Example 545, 5-ethyl-6-fluoro-4-(8-fluoro-2-(((2R,7aS)-2-fluorotetrahydro-1H-pyrrolizin-7a(5H)-yl)methoxy)-4-(2-(1-methyl-1H-pyrazol-5-yl)ethyl)pyrido[4,3-d]pyrimidin-7-yl)naphthalen-2-ol] |
|  |  |  | 3620 | 1140 | CCc1c(F)ccc2cc(O)cc(-c3ncc4c(N5CCCC(C6CCNC6=O)C5)nc(OC[C@@]56CCCN5C[C@H](F)C6)nc4c3F)c12 (stereo partly drawn) [Example 616, 3-(1-(7-(8-ethyl-7-fluoro-3-hydroxynaphthalen-1-yl)-8-fluoro-2-(((2R,7aS)-2-fluorohexahydro-1H-pyrrolizin-7a-yl)methoxy)pyrido[4,3-d]pyrimidin-4-yl)piperidin-3-yl)pyrrolidin-2-one] |
|  |  |  | > 10000 | > 10000 | CCc1c(F)ccc2cc(O)cc(-c3ncc4c(N5CC6OCCN(C(C)=O)C6C5)nc(OC[C@@]56CCCN5C[C@H](F)C6)nc4c3F)c12 (stereo partly drawn) [Example 623, 1-(6-(7-(8-ethyl-7-fluoro-3-hydroxynaphthalen-1-yl)-8-fluoro-2-(((2R,7aS)-2-fluorotetrahydro-1H-pyrrolizin-7a(5H)-yl)methoxy)pyrido[4,3-d]pyrimidin-4-yl)hexahydropyrrolo[3,4-b][1,4]oxazin-4(4aH)-yl) ethan-1-one] |
| 85 | 38 | 9 |  |  | CCc1c(F)ccc2cc(O)cc(-c3ncc4c(NCc5c[nH]nc5NC(=O)C5COC5)nc(OC[C@@]56CCCN5C[C@H](F)C6)nc4c3F)c12 [Example 649, N-(4-(((7-(8-ethyl-7-fluoro-3-hydroxynaphthalen-1-yl)-8-fluoro-2-(((2R,7aS)-2-fluorohexahydro-1H-pyrrolizin-7a-yl)methoxy)pyrido[4,3-d]pyrimidin-4-yl)amino)methyl)-1H-pyrazol-3-yl) oxetane-3-carboxamide] |
| 224 | 65 | 7 |  |  | CCc1c(F)ccc2cc(O)cc(-c3ncc4c(NCc5cc(C(=O)N(C)C)n(CC#N)n5)nc(OC[C@@]56CCCN5C[C@H](F)C6)nc4c3F)c12 [Example 658, 1-(cyanomethyl)-3-(((7-(8-ethyl-7-fluoro-3-hydroxynaphthalen-1-yl)-8-fluoro-2-(((2R,7aS)-2-fluorotetrahydro-1H-pyrrolizin-7a(5H)-yl)methoxy)pyrido[4,3-d]pyrimidin-4-yl)amino)methyl)-N,N-dimethyl-1H-pyrazole-5-carboxamide] |
|  |  |  | > 10000 | 4510 | CCc1c(F)ccc2cc(O)cc(-c3ncc4c(NCc5cc(C(=O)N(C)C)nn5CCC#N)nc(OC[C@@]56CCCN5C[C@H](F)C6)nc4c3F)c12 [Example 669, 1-(2-cyanoethyl)-5-(((7-(8-ethyl-7-fluoro-3-hydroxynaphthalen-1-yl)-8-fluoro-2-(((2R,7aS)-2-fluorohexahydro-1H-pyrrolizin-7a-yl)methoxy)pyrido[4,3-d]pyrimidin-4-yl)amino)methyl)-N,N-dimethyl-1H-pyrazole-3-carboxamide] |
|  |  |  | > 10000 | > 10000 | CCc1c(F)ccc2cc(O)cc(-c3ncc4c(NCc5cc(C(=O)N(C)C)nn5CC5COC5)nc(OC[C@@]56CCCN5C[C@H](F)C6)nc4c3F)c12 [Example 683, 5-(((7-(8-ethyl-7-fluoro-3-hydroxynaphthalen-1-yl)-8-fluoro-2-(((2R,7aS)-2-fluorohexahydro-1H-pyrrolizin-7a-yl)methoxy)pyrido[4,3-d]pyrimidin-4-yl)amino)methyl)-N,N-dimethyl-1-(oxetan-3-ylmethyl)-1H-pyrazole-3-carboxamide] |
|  |  |  | > 10000 | > 10000 | CCc1c(F)ccc2cc(O)cc(-c3ncc4c(NCc5cc(C(=O)N(C)C)n(CC6COC6)n5)nc(OC[C@@]56CCCN5C[C@H](F)C6)nc4c3F)c12 [Example 684A, 3-(((7-(8-ethyl-7-fluoro-3-hydroxynaphthalen-1-yl)-8-fluoro-2-(((2R,7aS)-2-fluorohexahydro-1H-pyrrolizin-7a-yl)methoxy)pyrido[4,3-d]pyrimidin-4-yl)amino)methyl)-N,N-dimethyl-1-(oxetan-3-ylmethyl)-1H-pyrazole-5-carboxamide] |
|  |  |  | > 10000 | 7030 | CCc1c(F)ccc2cc(O)cc(-c3ncc4c(NCc5cc(C(=O)N(C)C)n(C6CS(=O)(=O)C6)n5)nc(OC[C@@]56CCCN5C[C@H](F)C6)nc4c3F)c12 [Example 692, 1-(1,1-dioxidothietan-3-yl)-3-(((7-(8-ethyl-7-fluoro-3-hydroxynaphthalen-1-yl)-8-fluoro-2-(((2R,7aS)-2-fluorohexahydro-1H-pyrrolizin-7a-yl)methoxy)pyrido[4,3-d]pyrimidin-4-yl)amino)methyl)-N,N-dimethyl-1H-pyrazole-5-carboxamide] |
| > 100000 | 30000 | 42900 |  |  | CCc1cccc2cccc(-c3ncc4c(C5CCCCC5)nc(OCC56CCCN5CCC6)nc4c3F)c12 [Example 722, 4-cyclohexyl-7-(8-ethylnaphthalen-1-yl)-8-fluoro-2-((hexahydro-1H-pyrrolizin-7a-yl)methoxy)pyrido[4,3-d]pyrimidine] |
|  |  |  | 747 | 516 | CCc1c(F)ccc2cccc(-c3ncc4c(N5C[C@@H]6C[C@H](C5)[C@H](O)C6)nc(OC[C@@]56CCCN5C[C@H](F)C6)nc4c3F)c12 [Example 754, (1R,5R,6R)-3-(7-(8-ethyl-7-fluoronaphthalen-1-yl)-8-fluoro-2-(((2R,7aS)-2-fluorohexahydro-1H-pyrrolizin-7a-yl)methoxy)pyrido[4,3-d]pyrimidin-4-yl)-3-azabicyclo[3.2.1]octan-6-ol] |
| 4190 | 1320 | 1050 |  |  | CCc1c(F)ccc2cc(OC)cc(-c3ncc4c(N5C[C@@H]6C[C@H](C5)[C@H](O)C6)nc(OC[C@@]56CCCN5C[C@H](F)C6)nc4c3F)c12 [Example 777, (1R,5R,6R)-3-(7-(8-ethyl-7-fluoro-3-methoxynaphthalen-1-yl)-8-fluoro-2-(((2R,7aS)-2-fluorohexahydro-1H-pyrrolizin-7a-yl)methoxy)pyrido[4,3-d]pyrimidin-4-yl)-3-azabicyclo[3.2.1]octan-6-ol] |
| 1130 | 86 | 24 |  |  | CCc1c(F)ccc2cc(O)cc(-c3ncc4c(NCc5cn(C(=O)N(C)C)nc5NC(=O)C5CCC5O)nc(OC[C@@]56CCCN5C[C@H](F)C6)nc4c3F)c12 (stereo partly drawn) [Example 819, 4-(((7-(8-ethyl-7-fluoro-3-hydroxynaphthalen-1-yl)-8-fluoro-2-(((2R,7aS)-2-fluorotetrahydro-1H-pyrrolizin-7a(5H)-yl)methoxy)pyrido[4,3-d]pyrimidin-4-yl)amino)methyl)-3-(2-hydroxycyclobutane-1-carboxamido)-N,N-dimethyl-1H-pyrazole-1-carboxamide] |
| 66900 | 62900 | 34000 |  |  | O[C@@H]1C[C@H]2C[C@@H]1CN(c1nc(OC[C@@]34CCCN3C[C@H](F)C4)nc3c(F)c(-c4cccc5cc(C(F)F)ccc45)ncc13)C2 [Example 841, (1R,5R,6R)-3-(7-(6-(difluoromethyl)naphthalen-1-yl)-8-fluoro-2-(((2R,7aS)-2-fluorotetrahydro-1H-pyrrolizin-7a(5H)-yl)methoxy)pyrido[4,3-d]pyrimidin-4-yl)-3-azabicyclo[3.2.1]octan-6-ol] |
